≈ marks a conversion by molar mass, not a printed value. Like-named read-outs stand apart in the source and are kept apart here.
Experiments:
Experiment in all cases: MIC, broth micro-dilution technique (CLSI)
[1] = system: Escherichia coli MC4100 harboring the IMP4213; type: cell-based; conditions: 35° C., 22 hours; for MIC: Escherichia coli, 22 h
How it was run: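 Susceptibility is tested by broth micro-dilution per CLSI, using ten serial 2-fold dilutions beginning at 64 μg/ml or, in a modified version, 4 μg/mL. The E. coli MC4100 strain carries an imp allele raising outer-membrane permeability.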

[2] = system: Methicillin Resistant Staphylococcus aureus strain USA 300 (NRS384); type: cell-based; conditions: for MIC: Staphylococcus aureus, 22 h, read-out: MIC (μg/mL) S. aureus
How it was run: (§1)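 Cation-adjusted MHB + 0.002% Tween-80; 10-point 2-fold series starting 64 μg/ml (modified protocol: 4 μg/mL). Final inoculum OD600 0.0005; 35° C, 22 h. MIC per CLSI M07-A8 broth microdilution.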

[3] = system: MRSA COL (NRS100); type: cell-based, Staphylococcus aureus; conditions: for MIC: Staphylococcus aureus, 22 h, read-out: MIC (μg/mL) (COL)
How it was run: as §1

[4] = read-out: MIC (μg/mL) E. coli, Table 1 protocol: serial 2-fold dilutions starting from 64 μg/ml
[5] = read-out: MIC (μg/mL) E. coli, Table 2 modified protocol: serial 2-fold dilutions starting from 4 μg/mL
[6] = Table 1 protocol: serial 2-fold dilutions starting from 64 μg/ml, 35° C., 22 hours
[7] = Table 2 modified protocol: serial 2-fold dilutions starting from 4 μg/mL, 35° C., 22 hours

Structure (SMILES)	MIC [1, 4]	MIC [2]	MIC [3]	MIC [1, 5]	also measured
CCCCCCCCc1ccc(C(=O)N[C@@H](CCCN)C(=O)N(C)[C@@H]2C(=O)N[C@@H](C)C(=O)N[C@H](C(=O)O)Cc3ccc(OCCN)c(c3)-c3cc2ccc3OCCN)c(F)c1 [Compound 297]	0.063 µg/mL (≈ 0.0743 µM)	0.38 µg/mL (≈ 0.448 µM)	0.063 µg/mL (≈ 0.0743 µM)		
CCCCCCCCCCCCCC(=O)N[C@@H](CN)C(=O)N(C)[C@@H]1C(=O)N[C@@H](C)C(=O)N[C@H](C(=O)O)Cc2ccc(OCCN)c(c2)-c2cc1ccc2OCCN [Compound 298]		0.38 µg/mL (≈ 0.477 µM)	0.063 µg/mL (≈ 0.0791 µM)	0.031 µg/mL (≈ 0.0389 µM)	
CCCCCCCCc1ccc(C(=O)N[C@@H](CN)C(=O)N(C)[C@@H]2C(=O)N[C@@H](C)C(=O)N[C@H](C(=O)O)Cc3ccc(OCCN)c(c3)-c3cc2ccc3OCCN)cc1 [Compound 300]		0.5 µg/mL (≈ 0.623 µM)	0.13 µg/mL (≈ 0.162 µM)	0.023 µg/mL (≈ 0.0287 µM)	
CCCCCCCCc1ccc(C(=O)N[C@@H](CCN)C(=O)N(C)[C@@H]2C(=O)N[C@@H](C)C(=O)N[C@H](C(=O)O)Cc3ccc(OCCN)c(c3)-c3cc2ccc3OCCN)c(C)c1 [Compound 302]		0.11 µg/mL (≈ 0.133 µM)	0.039 µg/mL (≈ 0.047 µM)	0.0088 µg/mL (≈ 0.0106 µM)	
CCCCCCCCCCCCCC(=O)N[C@@H](CCCN)C(=O)N(C)[C@@H]1C(=O)N[C@@H](C)C(=O)N[C@H](C(=O)O)Cc2ccc(OCCN)c(c2)-c2cc1ccc2OCCN [Compound 303]		0.13 µg/mL (≈ 0.158 µM)	0.023 µg/mL (≈ 0.0279 µM)	0.023 µg/mL (≈ 0.0279 µM)	
CCCCCCCCCCCC(=O)N[C@@H](CCN)C(=O)N(C)[C@@H]1C(=O)N[C@@H](C)C(=O)N[C@H](C(=O)O)Cc2ccc(OCCN)c(c2)-c2cc1ccc2OCCN [Compound 304]		0.5 µg/mL (≈ 0.639 µM)	0.13 µg/mL (≈ 0.166 µM)	0.047 µg/mL (≈ 0.0601 µM)	
CCCCCCCCCCC(=O)N[C@@H](CCN)C(=O)N(C)[C@@H]1C(=O)N[C@@H](C)C(=O)N[C@H](C(=O)O)Cc2ccc(OCCN)c(c2)-c2cc1ccc2OCCN [Compound 305]		1 µg/mL (≈ 1.3 µM)	0.38 µg/mL (≈ 0.495 µM)	0.13 µg/mL (≈ 0.169 µM)	
CCCCCCCCCC(=O)N[C@@H](CCN)C(=O)N(C)[C@@H]1C(=O)N[C@@H](C)C(=O)N[C@H](C(=O)O)Cc2ccc(OCCN)c(c2)-c2cc1ccc2OCCN [Compound 306]		3 µg/mL (≈ 3.98 µM)	1 µg/mL (≈ 1.33 µM)	0.25 µg/mL (≈ 0.332 µM)	
CCCCCCCCC(=O)N[C@@H](CCN)C(=O)N(C)[C@@H]1C(=O)N[C@@H](C)C(=O)N[C@H](C(=O)O)Cc2ccc(OCCN)c(c2)-c2cc1ccc2OCCN [Compound 307]		4 µg/mL (≈ 5.41 µM)	3 µg/mL (≈ 4.05 µM)	1 µg/mL (≈ 1.35 µM)	
CCCCCCCCCCCCCC(=O)N[C@@H](CC)C(=O)N(C)[C@@H]1C(=O)N[C@@H](C)C(=O)N[C@H](C(=O)O)Cc2ccc(OCCN)c(c2)-c2cc1ccc2OCCN [Compound 308]		1 µg/mL (≈ 1.26 µM)	0.38 µg/mL (≈ 0.478 µM)	0.094 µg/mL (≈ 0.118 µM)	
CCCCCCCCc1ccc(C(=O)N[C@@H](CO)C(=O)N(C)[C@@H]2C(=O)N[C@@H](C)C(=O)N[C@H](C(=O)O)Cc3ccc(OCCN)c(c3)-c3cc2ccc3OCCN)c(C)c1 [Compound 309]		0.5 µg/mL (≈ 0.612 µM)	0.25 µg/mL (≈ 0.306 µM)	0.031 µg/mL (≈ 0.0379 µM)	
C[C@H](NC(=O)[C@@H]1Cc2ccc(OCCN)c(c2)-c2cc(ccc2OCCN)[C@H](N(C)C(=O)[C@H](CCCCN)NC(=O)c2ccc(-c3ccc(Cl)cc3)cc2)C(=O)N[C@@H](C)C(=O)N1)B1O[C@@H]2C[C@@H]3C[C@@H](C3(C)C)[C@]2(C)O1 [Compound 310]	0.19 µg/mL (≈ 0.181 µM)	0.5 µg/mL (≈ 0.477 µM)	0.094 µg/mL (≈ 0.0897 µM)		
C[C@@H]1NC(=O)[C@@H](N(C)C(=O)[C@H](CCCCN)NC(=O)c2ccc(-c3ccc(Cl)cc3)cc2)c2ccc(OCCN)c(c2)-c2cc(ccc2OCCN)C[C@@H](C(=O)NCB(O)O)NC1=O [Compound 311]	0.19 µg/mL (≈ 0.211 µM)	1.5 µg/mL (≈ 1.67 µM)	0.13 µg/mL (≈ 0.145 µM)		
C[C@@H]1NC(=O)[C@@H](N(C)C(=O)[C@H](CCCCN)NC(=O)c2ccc(-c3ccc(Cl)cc3)cc2)c2ccc(OCCN)c(c2)-c2cc(ccc2O)C[C@@H](C(=O)O)NC1=O [Compound 312]	3 µg/mL (≈ 3.75 µM)	24 µg/mL (≈ 30 µM)	3 µg/mL (≈ 3.75 µM)		
C[C@H](NC(=O)[C@@H]1Cc2ccc(O)c(c2)-c2cc(ccc2OCCN)[C@H](N(C)C(=O)[C@H](CCCCN)NC(=O)c2ccc(-c3ccc(Cl)cc3)cc2)C(=O)N[C@@H](C)C(=O)N1)B1O[C@@H]2C[C@@H]3C[C@@H](C3(C)C)[C@]2(C)O1 [Compound 313]	1 µg/mL (≈ 0.996 µM)	2 µg/mL (≈ 1.99 µM)	0.38 µg/mL (≈ 0.378 µM)		
CCCCCCCCCCCCCC(=O)NC(CCCCN)C(=O)N(C)C1C(=O)NC(C)C(=O)NC(C(=O)NC(C)B2OC3CC4CC(C4(C)C)C3(C)O2)Cc2ccc(OCCN)c(c2)-c2cc1ccc2OCCN (stereo not drawn) [Compound 314]					MIC (μg/mL) E. coli ([1]; Table 1 protocol: serial 2-fold dilutions starting from 64 μg/ml): 0.094 µg/mL (≈ 0.0901 µM); MIC (μg/mL) S. aureus [2, 6]: 0.063 µg/mL (≈ 0.0604 µM); MIC (μg/mL) (COL) [3, 6]: 0.012 µg/mL (≈ 0.0115 µM)
CCCCCCCCCCCCCC(=O)N(C)[C@@H]1C(=O)N[C@@H](C)C(=O)N[C@H](C(=O)N[C@@H](C)B2O[C@@H]3C[C@@H]4C[C@@H](C4(C)C)[C@]3(C)O2)Cc2ccc(OCCN)c(c2)-c2cc1ccc2OCCN [Compound 315]	1 µg/mL (≈ 1.09 µM)	1 µg/mL (≈ 1.09 µM)	0.5 µg/mL (≈ 0.546 µM)		
CCCCc1ccc(-c2ccc(C(=O)N[C@@H](CCCCN)C(=O)N(C)[C@@H]3C(=O)N[C@@H](C)C(=O)N[C@H](C(=O)N[C@@H](C)B4O[C@@H]5C[C@@H]6C[C@@H](C6(C)C)[C@]5(C)O4)Cc4ccc(OCCN)c(c4)-c4cc3ccc4OCCN)cc2)cc1 [Compound 316]	0.094 µg/mL (≈ 0.0879 µM)	0.13 µg/mL (≈ 0.122 µM)	0.031 µg/mL (≈ 0.029 µM)		
CCCCc1ccc(-c2ccc(C(=O)N[C@@H](CN)C(=O)N(C)[C@@H]3C(=O)N[C@@H](C)C(=O)N[C@H](C(=O)N[C@@H](C)B4O[C@@H]5C[C@@H]6C[C@@H](C6(C)C)[C@]5(C)O4)Cc4ccc(OCCN)c(c4)-c4cc3ccc4OCCN)cc2)cc1 [Compound 317]	0.13 µg/mL (≈ 0.127 µM)	0.13 µg/mL (≈ 0.127 µM)	0.063 µg/mL (≈ 0.0613 µM)		
CCCCCCCCc1ccc(C(=O)N[C@@H](CCCN)C(=O)N(C)[C@@H]2C(=O)N[C@@H](C)C(=O)N[C@H](C(=O)N[C@@H](C)B3O[C@@H]4C[C@@H]5C[C@@H](C5(C)C)[C@]4(C)O3)Cc3ccc(OC)c(c3)-c3cc2ccc3OC)cc1 [Compound 319]	0.75 µg/mL (≈ 0.768 µM)	2 µg/mL (≈ 2.05 µM)	1 µg/mL (≈ 1.02 µM)		
CCCCCCCCc1ccc(C(=O)N(C)[C@@H]2C(=O)N[C@@H](C)C(=O)N[C@H](C(=O)NCB3O[C@@H]4C[C@@H]5C[C@@H](C5(C)C)[C@]4(C)O3)Cc3ccc(OCCN)c(c3)-c3cc2ccc3OCCN)cc1 [Compound 320]	4 µg/mL (≈ 4.41 µM)	6 µg/mL (≈ 6.62 µM)	2 µg/mL (≈ 2.21 µM)		
CCCCCCCCc1ccc(C(=O)N[C@@H](CCCN)C(=O)N(C)[C@@H]2C(=O)N[C@@H](C)C(=O)N[C@H](C(=O)N[C@@H](C)B3O[C@@H]4C[C@@H]5C[C@@H](C5(C)C)[C@]4(C)O3)Cc3ccc(OCCN)c(c3)-c3cc2ccc3OCCN)c(C)c1 [Compound 321]	0.063 µg/mL (≈ 0.06 µM)	0.094 µg/mL (≈ 0.0896 µM)	0.063 µg/mL (≈ 0.06 µM)		
CCCCCCCCc1ccc(C(=O)N[C@@H](CCCN)C(=O)N(C)[C@@H]2C(=O)N[C@@H](C)C(=O)N[C@H](C(=O)N[C@@H](C)B(O)O)Cc3ccc(OCCN)c(c3)-c3cc2ccc3OCCN)c(F)c1 [Compound 322]	0.13 µg/mL (≈ 0.141 µM)				MIC [2, 6]: 0.13 µg/mL (≈ 0.141 µM); MIC [3, 6]: 0.063 µg/mL (≈ 0.0686 µM)
CCCCCCCCc1ccc(C(=O)N[C@@H](CCCN)C(=O)N(C)[C@@H]2C(=O)N[C@@H](C)C(=O)N[C@H](C(=O)N[C@@H](C)B3O[C@@H]4C[C@@H]5C[C@@H](C5(C)C)[C@]4(C)O3)Cc3ccc(OCCCN)c(c3)-c3cc2ccc3OCCCN)cc1 [Compound 323]		0.13 µg/mL (≈ 0.122 µM)	0.031 µg/mL (≈ 0.0292 µM)	0.063 µg/mL (≈ 0.0593 µM)	
CCCCCCCCc1ccc(C(=O)N[C@@H](CCCN)C(=O)N(C)[C@@H]2C(=O)N[C@@H](C)C(=O)N[C@H](C(=O)NCB3O[C@@H]4C[C@@H]5C[C@@H](C5(C)C)[C@]4(C)O3)Cc3ccc(OCCN)c(c3)-c3cc2ccc3OCCN)cc1 [Compound 324]		0.25 µg/mL (≈ 0.245 µM)	0.13 µg/mL (≈ 0.127 µM)	0.13 µg/mL (≈ 0.127 µM)	
CCCCCCCCCCCCCC(=O)N[C@@H](CCN)C(=O)N(C)[C@@H]1C(=O)N[C@@H](C)C(=O)N[C@H](C(=O)N[C@@H](C)B2O[C@@H]3C[C@@H]4C[C@@H](C4(C)C)[C@]3(C)O2)Cc2ccc(OCCN)c(c2)-c2cc1ccc2OCCN [Compound 325]		0.13 µg/mL (≈ 0.128 µM)	0.023 µg/mL (≈ 0.0227 µM)	0.13 µg/mL (≈ 0.128 µM)	
CCCCCCCCc1ccc(C(=O)N[C@@H](CCCN)C(=O)N(C)[C@@H]2C(=O)N[C@@H](C)C(=O)N[C@H](C(=O)NCB(O)O)Cc3ccc(OCCN)c(c3)-c3cc2ccc3OCCN)cc1 [Compound 326]				0.19 µg/mL (≈ 0.214 µM)	MIC [2, 7]: 0.25 µg/mL (≈ 0.282 µM); MIC [3, 7]: 0.13 µg/mL (≈ 0.147 µM)
CCCCc1ccc(-c2ccc(C(=O)N[C@@H](CCCN)C(=O)N(C)[C@@H]3C(=O)N[C@@H](C)C(=O)N[C@H](C(=O)NC/C=C/S(C)(=O)=O)Cc4ccc(OCCN)c(c4)-c4cc3ccc4OCCN)cc2)cc1 [Compound 327]				0.5 µg/mL (≈ 0.517 µM)	MIC [2, 7]: 0.5 µg/mL (≈ 0.517 µM); MIC [3, 7]: 0.13 µg/mL (≈ 0.134 µM)
